Patent US8222416B2, “Azaindole glucokinase activators” (Hoffmann-La Roche Inc., priority 2009, dated 2012)

biological target: T1, Recombinant human liver GK1 (GST-GK) (Homo sapiens, UniProt P35557); experiment: In vitro glucokinase activity assay (G6PDH-coupled, NADH, OD340); type: biochemical; details: concentration of activator that produced a 50% increase in the activity of GK; 5 mM D-glucose, 30° C.
T1 construct: made in house; host or cells: E. coli
T1 sequence (P35557 1-466 isoform P35557-2): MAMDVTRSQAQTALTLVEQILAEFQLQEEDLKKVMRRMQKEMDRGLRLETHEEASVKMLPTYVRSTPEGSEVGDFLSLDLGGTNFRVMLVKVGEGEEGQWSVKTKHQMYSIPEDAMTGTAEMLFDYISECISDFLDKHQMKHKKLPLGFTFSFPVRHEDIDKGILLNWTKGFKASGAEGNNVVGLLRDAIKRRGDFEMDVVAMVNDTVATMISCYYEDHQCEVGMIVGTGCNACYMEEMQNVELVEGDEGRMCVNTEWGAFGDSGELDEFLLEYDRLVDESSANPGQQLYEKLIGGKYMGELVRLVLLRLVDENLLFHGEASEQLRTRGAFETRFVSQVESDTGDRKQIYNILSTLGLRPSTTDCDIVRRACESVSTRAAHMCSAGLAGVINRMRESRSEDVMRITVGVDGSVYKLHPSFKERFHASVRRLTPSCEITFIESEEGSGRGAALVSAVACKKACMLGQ
Procedure, shortened: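 GST-fused human liver GK1 from E. coli, run at 30° C. in pH 7.1 HEPES with 5 mM glucose, 1 mM ATP and 10% DMSO, coupled via G6PDH to NADH. OD340 rate measured after enzyme start; SC1.5 is the activator concentration raising activity 50% over DMSO control.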

Compound	SC1.5
O=S(=O)(CCN1CCOCC1)c1ccc(C(CC2CCCC2)c2cc3cccnc3[nH]2)cc1 (stereo not shown) [Example 93, 2-{2-Cyclopentyl-1-[4-(2-morpholin-4-yl-ethanesulfonyl)-phenyl]-ethyl}-1H-pyrrolo[2,3-b]pyridine]	1.7 µM
CC(C)(O)c1ccc(C(CC2CCCC2)c2cc3cccnc3[nH]2)c(F)c1 (stereo not shown) [Example 94, 2-{4-[2-Cyclopentyl-1-(1H-pyrrolo[2,3-b]pyridin-2-yl)-ethyl]-3-fluoro-phenyl}-propan-2-ol]	2.3 µM
CC(C)(O)c1ccc(C(CC2CCOCC2)c2cc3cc(F)cnc3[nH]2)cc1F (stereo not shown) [Example 97, 2-{2-Fluoro-4-[1-(5-fluoro-1H-pyrrolo[2,3-b]pyridin-2-yl)-2-(tetrahydro-pyran-4-yl)-ethyl]-phenyl}-propan-2-ol]	2.2 µM
CC(C)CC(c1ccc(S(C)(=O)=O)cc1)c1cc2cc(F)cnc2[nH]1 (stereo not shown) [Example 99, 5-Fluoro-2-[1-(4-methanesulfonyl-phenyl)-3-methyl-butyl]-1H-pyrrolo[2,3-b]pyridine]	0.394 µM
CC(C)CC(c1ccc(S(=O)(=O)CCO)cc1)c1cc2cc(F)cnc2[nH]1 (stereo not shown) [Example 101]	0.854 µM
CC(C)(O)c1ccc(C(CC2CCCC2)c2cc3cc(F)cnc3[nH]2)cc1F (stereo not shown) [Example 103, 2-{4-[2-Cyclopentyl-1-(5-fluoro-1H-pyrrolo[2,3-b]pyridin-2-yl)-ethyl]-2-fluoro-phenyl}-propan-2-ol]	0.18 µM
CC(C)CC(c1ccc(C(C)(C)O)c(F)c1)c1cc2cc(F)cnc2[nH]1 (stereo not shown) [Example 105, 2-{2-Fluoro-4-[1-(5-fluoro-1H-pyrrolo[2,3-b]pyridin-2-yl)-3-methyl-butyl]-phenyl}-propan-2-ol]	0.368 µM
CN(C)CC(=O)Nc1cnc2[nH]c(C(CC3CCCC3)c3ccc(S(C)(=O)=O)cc3)cc2c1 (stereo not shown) [Example 107, N-{2-[2-Cyclopentyl-1-(4-methanesulfonyl-phenyl)-ethyl]-1H-pyrrolo[2,3-b]pyridin-5-yl}-2-dimethylamino-acetamide]	9.4 µM
CCOc1ccc(C(CC2CCCC2)c2cc3cccnc3[nH]2)cn1 (stereo not shown) [Example 108, 2-[2-Cyclopentyl-1-(6-ethoxy-pyridin-3-yl)-ethyl]-1H-pyrrolo[2,3-b]pyridine]	2.4 µM
c1cncc(C(CC2CCCC2)c2cc3cccnc3[nH]2)c1 (stereo not shown) [Example 110, 2-(2-Cyclopentyl-1-pyridin-3-yl-ethyl)-1H-pyrrolo[2,3-b]pyridine]	14.1 µM
CS(=O)(=O)c1ccc(C(CC2CCCC2)c2cc3cc(Cl)cnc3[nH]2)cc1 (stereo not shown) [Example 111, 5-Chloro-2-[2-cyclopentyl-1-(4-methanesulfonyl-phenyl)-ethyl]-1H-pyrrolo[2,3-b]pyridine]	0.15 µM
CS(=O)(=O)c1ccc(C(CC2CCCC2)c2cc3cccnc3[nH]2)nc1 (stereo not shown) [Example 112, 2-[2-Cyclopentyl-1-(5-methanesulfonyl-pyridin-2-yl)-ethyl]-1H-pyrrolo[2,3-b]pyridine]	0.587 µM
COc1ccc2cc(C(CC3CCCC3)c3ccc(S(C)(=O)=O)cc3)[nH]c2n1 (stereo not shown) [Example 113, 2-[2-Cyclopentyl-1-(4-methanesulfonyl-phenyl)-ethyl]-6-methoxy-1H-pyrrolo[2,3-b]pyridine]	1.8 µM
CS(=O)(=O)c1ccc(C(CC2CCOCC2)c2cc3cc(Cl)cnc3[nH]2)cc1 (stereo not shown) [Example 114, 5-Chloro-2-[1-(4-methanesulfonyl-phenyl)-2-(tetrahydro-pyran-4-yl)-ethyl]-1H-pyrrolo[2,3-b]pyridine]	2.2 µM
CS(=O)(=O)c1ccc(C(O)(CC2CCC2)c2cc3cccnc3[nH]2)cc1 (stereo not shown) [Example 115, 2-Cyclobutyl-1-(4-methanesulfonyl-phenyl)-1-(1H-pyrrolo[2,3-]pyridin-2-yl)-ethanol]	7.4 µM
CS(=O)(=O)c1ccc(/C(=C\C2CCCC2)c2cc3cc(F)cnc3[nH]2)cc1 [Example 116, 2-[(E)-2-cyclopentyl-1-(4-methanesulfonyl-phenyl)-vinyl]-5-fluoro-1H-pyrrolo[2,3-b]pyridine]	0.009 µM
